# Laboratory results published in patent publication US20240336658A1, “CYCLIC PEPTIDE AND PREPARATION METHOD AND USE THEREOF” (HANGZHOU HUIBO SCIENCE AND TECHNOLOGY CO., LTD, priority 2021, published 2024).
# Entries after “also recorded” stand apart in the source; their conditions may differ. Read-outs that look alike come from different tables or passages of the source.
# Legend:
# [1] = system: full-thickness skin defect wound surfaces; assay: Effect of Hst1-MAD cyclic peptide on wound repair in mice (Example 22): healing rate, histology, immunohistochemistry, immunofluorescence double staining, Western Blot; assay type: in vivo, C57 BL/6 mice
# Method: […]. 36 healthy male special pathogen-free grade C57 BL/6 mice (purchased from Guangdong Experimental Animal Center) of 6-8 weeks old and weighing 22-28 g. They were intraperitoneally injected with 5 ml/kg of 1% pentobarbital sodium for anesthesia. After the mice had no corneal reflex, the hair on their backs was carefully removed and disinfected with alcohol. […] full-thickness skin defect wound surfaces were prepared on the back of each mouse by using a circular skin punch. […]. Each wound surface was added with 0.5 ml of four drugs respectively, and administration was conducted every day until the wound surfaces of the experimental groups healed. Photographs were taken on days 0, 3, 5, and 10 after surgery, and wound tissues were sampled on days 3, 5, and 10 for subsequent pathological staining.
# was observed and photographed with a digital camera (see FIG. 19), and the wound healing rate was calculated (see FIG. 20). Wound healing rate=(wound area immediately after injury−unhealed wound area at each time point)÷wound area immediately after injury×100%.
# The wound specimens were fixed in 4% paraformaldehyde for 48 hours, rinsed with tap water for 10 minutes, dehydrated with graded ethanol, permeabilized with xylene, and embedded in paraffin to prepare 4 μm thick sections. Some sections were taken and subjected to HE staining to detect an epidermal thickness and subjected to Masson staining to detect newly grown collagen. Through hematoxylin-cosin staining (HE), the effects of the four groups of drugs on newly grown epidermal at the wound surface on day 10 were evaluated (FIGS. 21 and 22). Through Masson staining, the effects of the four groups of drugs on newly grown collagen at the wound surface on days 5 and 10 were evaluated (FIGS. 23 and 24). 5 sections were taken from each mouse, and 5 fields of view were selected for each section. Data analysis was performed using the software Image-pro Plus.
# and rehydrated, subjected to antigen thermal repair with a 0.1 mol/L citric acid buffer (with a pH value of 6.0) for 20 minutes, treated with hydrogen peroxide with a volume fraction of 10% for inactivation of endogenous peroxidase for 10 minutes, and blocked with 50 g/L of bovine serum albumin for 2 hours. It was added with a rabbit anti-mouse CD31 primary antibody (with a dilution ratio of 1:300) and a mouse anti-VEGF (with a dilution ratio of 1:100), incubated overnight at 4° C., and washed with PBS. It was rewarmed for 1 hour, washed with PBS, added dropwise with ready-to-use biotinylated goat anti-mouse and goat anti-rabbit IgG secondary antibodies, incubated for 2 hours, and washed with PBS. It was subjected to DAB development, hematoxylin counterstaining. gradient ethanol dehydration, xylene permeabilization, and resin blocking. 5 sections were taken from each mouse, and 5 fields of view were selected for each section. The sections were observed under a 400× inverted fluorescence microscope, and analyzed for the number of CD31-positive blood vessels (see FIG. 25) and VEGF expression amounts (see FIG. 26) by using Image-pro Plus software.
# The specific steps were: the previous steps were the same as those of 1.3.3, and they were incubated with the antibodies MHCII (orb101661; 1:500; Biorbyt Biotechnology Co., Ltd., Wuhan, CN), CD11c (97585; 1:200; Cell Signaling Technology Inc., Boston, MA), CD68 (GB11067; 1:300; Servicebio Inc.), CD80 (GB11034; 1:300; Servicebio Inc.), CD206 (GB11062; 1:500; Servicebio Inc.), claudin1 (37-4900; 1:100; Thermo Fisher Scientific Co., Ltd, Shanghai, CN) and claudin2 (32-5600; 1:200; Thermo Fisher Scientific Co., Ltd.) at 4° C. overnight. The fluorescent-labeled secondary antibodies were incubated at room temperature for 1 h, followed by 4′,6-diamidino-2′-phenylindole (DAPI) (G1012; Google Biotechnology Co., Ltd., Wuhan, CN). The stained sections were photographed by using a fluorescence microscope (Nikon Eclipse TI-SR. Tokyo, Japan). […]
# fibroblasts (NIH/3T3) = assay: Scratch experiment, Hst1-MAD cyclic peptides (Example 23); assay type: cell-based; settings: dose required to achieve the same pharmaceutical effect in the scratch experiment
# Source text: In this example, the propargylglycine-Hst1-MAD cyclic peptide, the homopropargylglycine-Hst1-MAD cyclic peptide, the dihomopropargylglycine-Hst1-MAD cyclic peptide and the linear Hst1 prepared in Examples 13, 14, and 15, and the Hst1-MAD head-to-tail cyclic peptide or N-terminal and C-terminal cyclized peptide prepared by the amide bond cyclization method provided by the literature of for example Sortase A as a tool for high-yield histatin cyclization, Jan G. M. Bolscher, The FASEB Journal. Research Communication, were adopted respectively, the reaction time was recorded, the yield of the reaction product was detected by HPLC, the proportion of side reactions in the reaction product was calculated, and activity comparison was performed. The activity comparison method was to calculate the dose required to achieve the same pharmaceutical effect through a scratch experiment. […] After 12 hours and 24 hours of culture, the scratched area of each group was calculated by using imageJ (Rawak Software, Inc. Germany) software, and the scratch area at 0 hour was an initial scratch area. The scratch healing rate was calculated in the following manner: W % (scratch healing rate)=(W0−Wt)/W0×100%, where W0=an initial scratch area, and Wt=a remaining scratch area; and the results were as shown in Table 14.
substance,measurement,setting,value
Cyclized Hst1 prepared by Sortase A enzymatic method,"ring closure, conversion","enzyme bond, Sortase A",90%
Hst1 cyclized through amide bonds,"ring closure, conversion",amide bond,3%
"Linear Hst1-MAD: shortest sequence that maintains Hst1 activity, 20th to 32nd amino acids of Hst1, SEQ ID NO.13 (SHREFPFYGDYGS)",inhibitory effects on inflammatory factors IL-6 and MIP-1β,"[1]; Western Blot, 1 μM Click-Hst1-MAD, 1 μM Hst1-MAD",significantly better than those of the control group and the 10 μM Histatin1 group
same,expression levels of Nrf2 and HO-1,"[1]; day 3 after surgery, Western Blot, 1 μM Click-Hst1-MAD, 1 μM Hst1-MAD",increased compared with those in the Control group
same,VEGF expression amount,"[1]; day 5, 1 μM Click-Hst1-MAD, 10 μM Histatin1, 1 μM Hst1-MAD compared with each other",comparable
same,expression levels of the dermal collagen,"[1]; day 5, 1 μM Hst1-MAD and 10 μM Histatin1 compared with each other",equivalent
same,epidermal thickness at the wound surface,"[1]; day 10, HE staining, 1 μM Click-Hst1-MAD, 1 μM Hst1-MAD, 10 μM Histatin1",thinnest epidermal thickness
same,Claudin1 expression intensity,"[1]; day 10, immunofluorescence, 1 μM Click-Hst1-MAD, 1 μM Hst1-MAD, 10 μM Histatin1",equivalent expression level of Claudin1
same,healing rate of the wound surface,"[1]; days 3 and 5, 1 μM Click-Hst1-MAD, 1 μM Hst1-MAD linear peptide, 10 μM Histatin1",equivalent to that of the 10 μM Histatin linear peptide group
same,number of dendritic cells (MHCII+ and CD11c+),"[1]; days 3 and 5 evaluated, 1 μM Click-Hst1-MAD, 1 μM Hst1-MAD, 10 μM Histatin1",slightly lower than that of the 10 μM Histatin1 group; also recorded: significantly higher than that in the Control group
same,number of M1 macrophages (CD68+ and CD80+),"[1]; days 3 and 5 evaluated, 1 μM Hst1-MAD, 10 μM Histatin1",slightly higher than that in the 10 μM Histatin1 group; also recorded: lower than that in the Control group
same,number of CD31-positive blood vessels,"[1]; days 5 and 10, immunohistochemistry, 1 μM Click-Hst1-MAD, 1 μM Hst1-MAD, 10 μM Histatin1",significantly higher than that in the Control group
same,Dosage of agents required for scratch test,fibroblasts (NIH/3T3),8 µM
